Legend:
Type in all cases: cell-based
p38 MAPK = p38 MAPK activity assay (immunoprecipitation, ATF-2 Thr76 phosphorylation immunoblot) in human FLS cells; settings: IL-1β 10 ng/ml 15 min; IDR-1002 100 μg/ml 45 min prior to or at time of stimulation; FIG. 9
Procedure: Human FLS cells (5×10^4/ml) were seeded in a total volume of 20 ml per 75 cm^2 tissue culture flask in complete DMEM media containing 10% FBS for each condition. The cells were allowed to adhere overnight. Following day the media was changed to 10 ml complete DMEM containing 1% FBS. The cells were either un-stimulated or treated with IL-1β (10 ng/ml) in the presence or absence of IDR-1002 (100 μg/ml) for 15 min. IL-1β is known to induce JNK activation, and also p38 MAPK activity, after 15 min in FLS cells. Peptide IDR-1002 (100 μg/ml) was added either 45 min prior to, or at the time of stimulation with IL-1β. Total protein concentration was evaluated for each cell lysate employing micro BCA (Thermo Scientific). Kinase activities specific to JNK and to p38-MAPK were monitored employing the JNK activity assay kit and the p38 MAPK assay kit (Abcam Inc., Calif., USA) following the manufacturer's instructions. For JNK, 50 μg of total protein per cell lysate was used for immunoprecipitation employing a JNK-specific antibody. The eluate was treated with c-Jun substrate and ATP mixture. Subsequent phosporylation of c-Jun was evaluated by probing immunoblots with anti-phospho-c-Jun (Ser73) specific antibody. […] Subsequent phosporylation of ATF-2 was evaluated by probing immunoblots with a phospho-ATF-2 (Thr76) specific antibody. […]

human FLS cells = test: Cytokine and chemokine production in human FLS cell supernatants (BD Cytometric Bead Array)
Procedure: Tissue culture supernatants were harvested after stimulation of human FLS cells with various cytokines (as indicated) with and without IDR peptides after 24 hr. The supernatants were centrifuged at 1500×g for 7 min to obtain cell-free samples. The samples were aliquoted and stored at −20° C. until further use. Production of MMP-3 in the tissue culture supernatants was monitored using Quantikine® human MMP-3 (total) ELISA kit (Quantikine is a registered trademark of R&D Systems, Inc. Minneapolis, Minn., USA) as per the manufacturer's instructions. Production of pro-inflammatory cytokines IL-1β, IL-6, IL-10, TNF, IL-12p70 and chemokines IL-8, RANTES, MIG, MCP-1, IP-10 in the tissue culture supernatants was determined using preconfigured multiplex BD Cytometric Bead Array (CBA) human inflammation and chemokine kits respectively, employing the FACS Calibur flow cytometer (BD Biosciences, Mississauga, ON, Canada) as per the manufacture's instructions. The concentration of the cytokines or chemokines in the tissue culture supernatants was evaluated by establishing a standard curve with serial dilutions of the recombinant human cytokines or chemokines as required.
To evaluate whether IDR-1002 alone could induce inflammatory responses, human FLS cells were stimulated with IDR-1002 (100 μg/ml) for 24 hr. BD Cytometric Bead Array (CBA) preconfigured human inflammation (IL-8, IL-1β, IL-6, IL-10, TNF, IL-12p70) kit was used to evaluate protein secretion of the various analytes in the tissue culture supernatants employing FACS Calibur flow cytometer.
IL-1β-induced protein profiles (proteome) in the presence and absence of IDR-1002 were evaluated using quantitative proteomics iTRAQ® tools employing different isobaric tags. Human FLS cells were treated with IDR-1002 (100 μg/ml) for 45 min prior to IL-1β (10 ng/ml) stimulation for 24 hr. Tissue culture supernatants were monitored for protein production of MMP-3 and chemokines IL-8 and MCP-1 production, in order to evaluate the validity of the assay before processing the cell lysates for quantitative proteomic evaluation. MMP-3 production was monitored in the tissue culture supernatants by ELISA, and chemokines IL-8 and MCP-1 production were evaluated by BD preconfigured human chemokine Cytometric Bead Array.

NF-κB = test: Secreted NF-κB luciferase reporter assay in rabbit synoviocyte HIG-82 cells; settings: IL-1β 10 ng/ml, IDR-1002 100 μg/ml, 6 hr, FIG. 3
Procedure: Rabbit synoviocyte HIG-82 cells were transiently transfected with pNFκB-MetLuc2-Reporter Vector (Clontech laboratories Inc., Mountain View, Calif., USA) or the provided control vector as per the manufacturer's instructions. Various stimulants were added to the transfected cells in culture media containing 1% (v/v) FBS. The cells were stimulated with recombinant human IL-1β in the presence and absence of IDR-1002 for 6 hr. The peptide was added either 45 min prior to, or at the time of cytokine stimulation. The activation of NF-κB was monitored by employing the Ready-To-Glow Secreted NF-κB Luciferase Reporter Assay (Clontech) as per the manufacturer's instructions.
Transcription factor NF-κB is central to the destructive effects associated with the escalation and sustenance of inflammatory responses pivotal in chronic inflammatory diseases including arthritis. Quantitative proteomics evaluation using iTRAQ® labelling pointed to the possibility that the peptide IDR-1002 altered IL-1β-induced NF-κB activation. Therefore, this study further evaluated the impact of IDR-1002 on IL-1β-induced direct activation of NF-κB in synovial fibroblasts. […] The activation of NF-κB was monitored by employing the Ready-To-Glow Secreted NF-κB Luciferase Reporter Assay (Clontech) as per the manufacturer's instructions.

VQRWLIVWRIRK (IDR-1002 peptide)
IL-1β-induced p38 MAPK activity and phosphorylation of ATF-2 (Thr76) (p38 MAPK): abrogated | IL-10 and IL-12p70 in supernatants by flow cytometry (human FLS cells; IDR-1002 100 μg/ml alone, 24 hr): could not be detected | suppression of IL-1β-induced chemokine MCP-1 production (human FLS cells; IDR-1002 100 μg/ml for 45 min prior to IL-1β 10 ng/ml, 24 hr, FIG. 2B): > 60% | suppression of IL-1β-induced chemokine IL-8 production (human FLS cells; IDR-1002 100 μg/ml for 45 min prior to IL-1β 10 ng/ml, 24 hr, FIG. 2C): 20% | release of pro-inflammatory cytokines TNF-α, IL-1β or IL6 by peptide alone (human FLS cells; IDR-1002 100 μg/ml, 24 hr, vs un-stimulated control cells, data not shown): did not induce | chemokine production induced by peptide by itself in FLS (human FLS cells; IDR-1002 alone, human FLS): did not induce chemokine production by itself | suppression of IL-1β-induced activation of NF-κB (NF-κB): greater than 70%

— US20130316963A1, “INNATE DEFENCE REGULATORY PEPTIDE COMPOSITIONS FOR TREATMENT OF ARTHRITIS” (UNIVERSITY OF MANITOBA, priority 2010, published 2013)
